Laboratory results from patent US9663526B2, “Aminopyrimidinyl compounds” (Pfizer Inc., priority 2014, dated 2017).
Where two headings read alike, the source gives them in different places.

Columns and labels:
[1] = molecular target: recombinant human kinase domain of TYK2 (Homo sapiens (Human), UniProt P29597); experiment: JAK Caliper enzyme assay at 1 mM ATP (TYK2); type: biochemical; details: 1 mM ATP; read-out: IC50 (nM) TYK2;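 further: microfluidic mobility-shift readout of synthetic peptide phosphorylation by TYK2, tuned to 20–30% conversion at room temperature, reaction stopped with EDTA, DMSO-only wells as uninhibited baseline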
recombinant human kinase domain of TYK2, sequence (P29597 897-1176): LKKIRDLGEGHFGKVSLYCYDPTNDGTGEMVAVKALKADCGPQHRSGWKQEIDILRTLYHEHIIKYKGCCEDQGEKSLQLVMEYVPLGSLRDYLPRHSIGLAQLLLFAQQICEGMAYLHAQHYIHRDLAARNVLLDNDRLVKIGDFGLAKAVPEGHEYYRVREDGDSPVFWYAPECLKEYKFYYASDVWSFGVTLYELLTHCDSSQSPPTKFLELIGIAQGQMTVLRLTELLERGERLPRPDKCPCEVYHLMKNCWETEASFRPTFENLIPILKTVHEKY

[2] = molecular target: recombinant human kinase domain of JAK2 (Homo sapiens (Human), UniProt O60674); experiment: JAK Caliper enzyme assay at 1 mM ATP (JAK2); type: biochemical;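 further: microfluidic mobility-shift read-out of fluorescent synthetic peptide phosphorylation, percent product converted from peak heights, room temperature, DMSO-only wells as uninhibited baseline, inhibition curve fit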
recombinant human kinase domain of JAK2, sequence (O60674 849-1124): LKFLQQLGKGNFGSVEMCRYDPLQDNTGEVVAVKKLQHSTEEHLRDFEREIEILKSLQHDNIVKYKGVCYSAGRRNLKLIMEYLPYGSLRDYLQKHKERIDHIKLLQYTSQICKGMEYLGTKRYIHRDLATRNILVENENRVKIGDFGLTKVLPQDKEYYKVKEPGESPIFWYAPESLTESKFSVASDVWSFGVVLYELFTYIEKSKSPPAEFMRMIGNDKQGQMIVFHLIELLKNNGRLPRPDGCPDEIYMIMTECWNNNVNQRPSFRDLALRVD

[3] = molecular target: recombinant human kinase domain of JAK3 (Homo sapiens (Human), UniProt P52333); experiment: JAK Caliper enzyme assay at 1 mM ATP (JAK3); type: biochemical; details: 1 mM ATP; read-out: IC50 (nM) JAK3;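 further: microfluidic mobility-shift readout of synthetic peptide phosphorylation, percent product converted from peak heights, normalized to DMSO-only wells as uninhibited baseline, room temperature incubation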
recombinant human kinase domain of JAK3, sequence (P52333 822-1111): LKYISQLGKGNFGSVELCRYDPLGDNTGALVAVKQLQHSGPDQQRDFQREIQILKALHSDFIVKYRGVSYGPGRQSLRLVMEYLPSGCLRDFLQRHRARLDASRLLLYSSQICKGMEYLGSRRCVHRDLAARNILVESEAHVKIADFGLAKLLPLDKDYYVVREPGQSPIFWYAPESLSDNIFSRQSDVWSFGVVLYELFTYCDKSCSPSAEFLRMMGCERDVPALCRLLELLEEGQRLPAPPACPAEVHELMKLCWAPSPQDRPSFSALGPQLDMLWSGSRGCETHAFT

[4] = test system: interferon alpha signalling (TYK2 and JAK1), STAT3 phosphorylation; experiment: Human whole blood INFα induced STAT3 phosphorylation assay; type: cell-based; details: compound 60 minutes at 37° C., IFNα 5000 U/ml for 15 minutes, pSTAT3 in lymphocyte population by flow cytometry, read-out: HWB IFN alpha IC50;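 further: flow cytometry with anti-pSTAT3 staining, signal as percent-positive × mean fluorescence, baseline from unstimulated wells, 11-point dilution series, IC50 as inhibition of pSTAT3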
[5] = molecular target: recombinant human kinase domain of JAK1 (Homo sapiens (Human), UniProt P23458); experiment: JAK Caliper enzyme assay at 1 mM ATP (JAK1); type: biochemical;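 further: microfluidic mobility-shift readout of synthetic fluorescent peptide phosphorylation, percent product converted from peak height, inhibition relative to DMSO-only wells as uninhibited baseline, room temperature incubation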
recombinant human kinase domain of JAK1, sequence (P23458 875-1153): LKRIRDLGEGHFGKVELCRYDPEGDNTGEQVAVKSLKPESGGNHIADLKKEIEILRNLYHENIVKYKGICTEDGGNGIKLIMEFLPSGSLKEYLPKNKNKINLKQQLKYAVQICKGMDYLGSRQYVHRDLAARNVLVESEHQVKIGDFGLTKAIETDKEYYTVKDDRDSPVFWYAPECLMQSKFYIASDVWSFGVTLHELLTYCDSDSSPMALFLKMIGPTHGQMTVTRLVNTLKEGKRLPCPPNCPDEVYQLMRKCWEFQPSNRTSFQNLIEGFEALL

[6] = 1 mM ATP, read-out: IC50 (nM) JAK1

| SMILES | IC50 [1] | IC50 [2] | IC50 [3] | IC50 [4] | IC50 [5, 6] | IC50 [5] |
| --- | --- | --- | --- | --- | --- | --- |
| CNC(=O)c1ncc(Nc2nccc(N3C[C@H]4CC[C@@H](C3)N4C(=O)C3CC3)n2)cc1C [Example 6, 5-({4-[(1R,5S)-8-(cyclopropylcarbonyl)-3,8-diazabicyclo[3.2.1]oct-3-yl]pyrimidin-2-yl}amino)-N,3-dimethylpyridine-2-carboxamide] | 36 nM | 754 nM | > 10000 nM | 232 nM | 337 nM |  |
| CNC(=O)c1ncc(Nc2nccc(N3C[C@H]4CC[C@@H](C3)N4C(=O)[C@@H]3CC3(F)F)n2)cc1Cl [Example 10, 3-chloro-5-({4-[(1R,5S)-8-{[(1S)-2,2-difluorocyclopropyl]carbonyl}-3,8-diazabicyclo[3.2.1]oct-3-yl]pyrimidin-2-yl}amino)-N-methylpyridine-2-carboxamide] | 22 nM | 367 nM | > 10000 nM | 439 nM | 171 nM |  |
| O=C([C@@H]1CC1(F)F)N1[C@@H]2CC[C@H]1CN(c1ccnc(Nc3cnc(CCO)c(Cl)c3)n1)C2 [Example 18, [(1R,5S)-3-(2-{[5-chloro-6-(2-hydroxyethyl)pyridin-3-yl]amino}pyrimidin-4-yl)-3,8-diazabicyclo[3.2.1]oct-8-yl][(1S)-2,2-difluorocyclopropyl]methanone] | 62 nM | 331 nM | > 10000 nM | 338 nM | 352 nM |  |
| O=C([C@@H]1CC1(F)F)N1[C@@H]2CC[C@H]1CN(c1ccnc(Nc3cnc(CCO)c(F)c3)n1)C2 [Example 19, [(1S)-2,2-difluorocyclopropyl][(1R,5S)-3-(2-{[5-fluoro-6-(2-hydroxyethyl)pyridin-3-yl]amino}pyrimidin-4-yl)-3,8-diazabicyclo[3.2.1]oct-8-yl]methanone] | 52 nM | 402 nM | > 10000 nM | 238 nM | 463 nM |  |
| O=C([C@@H]1CC1(F)F)N1[C@@H]2CC[C@H]1CN(c1ccnc(Nc3cnc(N4CC[C@H](O)C4)c(F)c3)n1)C2 [Example 20, [(1S)-2,2-difluorocyclopropyl]{(1R,5S)-3-[2-({5-fluoro-6-[(3S)-3-hydroxypyrrolidin-1-yl]pyridin-3-yl}amino)pyrimidin-4-yl]-3,8-diazabicyclo[3.2.1]oct-8-yl}methanone] | 58 nM | 346 nM | > 10000 nM | 458 nM | 314 nM |  |
| O=C([C@@H]1CC1(F)F)N1[C@@H]2CC[C@H]1CN(c1ccnc(Nc3cnc(N4CC(O)C4)c(F)c3)n1)C2 [Example 22, [(1S)-2,2-difluorocyclopropyl][(1R,5S)-3-(2-{[5-fluoro-6-(3-hydroxyazetidin-1-yl)pyridin-3-yl]amino}pyrimidin-4-yl)-3,8-diazabicyclo[3.2.1]oct-8-yl]methanone] | 55 nM | 312 nM | > 10000 nM | 410 nM | 490 nM |  |
| O=C([C@@H]1CC1(F)F)N1[C@@H]2CC[C@H]1CN(c1ccnc(Nc3cnc(CO)c(F)c3)n1)C2 [Example 25, [(1S)-2,2-difluorocyclopropyl][(1R,5S)-3-(2-{[5-fluoro-6-(hydroxymethyl)pyridin-3-yl]amino}pyrimidin-4-yl)-3,8-diazabicyclo[3.2.1]oct-8-yl]methanone] | 34 nM | 468 nM | > 10000 nM | 229 nM | 317 nM |  |
| CC(C)(C#N)c1ccc(Nc2nccc(N3C[C@H]4CC[C@@H](C3)N4C(=O)[C@@H]3CC3(F)F)n2)cn1 [Example 26, 2-[5-({4-[(1R,5S)-8-{[(1S)-2,2-difluorocyclopropyl]carbonyl}-3,8-diazabicyclo[3.2.1]oct-3-yl]pyrimidin-2-yl}amino)pyridin-2-yl]-2-methylpropanenitrile] | 25 nM | 192 nM | > 10000 nM | 247 nM | 60 nM |  |
| CNC(=O)c1ncc(Nc2nccc(N3C[C@H]4CC[C@@H](C3)N4C(=O)[C@@H]3C[C@H]3C#N)n2)cc1F [Example 27, 5-({4-[(1R,5S)-8-{[(1R,2R)-2-cyanocyclopropyl]carbonyl}-3,8-diazabicyclo[3.2.1]oct-3-yl]pyrimidin-2-yl}amino)-3-fluoro-N-methylpyridine-2-carboxamide] | 61 nM | 640 nM | > 10000 nM | 139 nM | 78 nM |  |
| CNC(=O)c1ncc(Nc2nccc(N3C[C@H]4CC[C@@H](C3)N4C(=O)[C@@H]3CC3(F)F)n2)cc1F [Example 29, 5-({4-[(1R,5S)-8-{[(1S)-2,2-difluorocyclopropyl]carbonyl}-3,8-diazabicyclo[3.2.1]oct-3-yl]pyrimidin-2-yl}amino)-3-fluoro-N-methylpyridine-2-carboxamide] | 31 nM | 487 nM | > 10000 nM | 118 nM |  | 131 nM |
| CNC(=O)c1ncc(Nc2nccc(N3C[C@H]4CC[C@@H](C3)N4C(=O)C3CC3)n2)cc1Cl [Example 30, 3-chloro-5-({4-[(1R,5S)-8-(cyclopropylcarbonyl)-3,8-diazabicyclo[3.2.1]oct-3-yl]pyrimidin-2-yl}amino)-N-methylpyridine-2-carboxamide] | 97 nM | 2130 nM | > 10000 nM | 653 nM | 1160 nM |  |
| CNC(=O)c1ncc(Nc2nccc(N3C[C@H]4CC[C@@H](C3)N4C(=O)[C@@H]3C[C@H]3C#N)n2)cc1Cl [Example 31, 3-chloro-5-({4-[(1R,5S)-8-{[(1R,2R)-2-cyanocyclopropyl]carbonyl}-3,8-diazabicyclo[3.2.1]oct-3-yl]pyrimidin-2-yl}amino)-N-methylpyridine-2-carboxamide] | 32 nM | 401 nM | > 10000 nM | 284 nM | 78 nM |  |
| Cn1cc(Nc2nccc(N3C[C@H]4CC[C@@H](C3)N4C(=O)C3(F)CC3)n2)cn1 [Example 46, (1-fluorocyclopropyl)[(1R,5S)-3-{2-[(1-methyl-1H-pyrazol-4-yl)amino]pyrimidin-4-yl}-3,8-diazabicyclo[3.2.1]oct-8-yl]methanone] | 84 nM | 526 nM | 4160 nM | 209 nM | 173 nM |  |
| O=C(C1CC1)N1[C@@H]2CC[C@H]1CN(c1ccnc(Nc3cn[nH]c3)n1)C2 [Example 49, cyclopropyl{(1R,5S)-3-[2-(1H-pyrazol-4-ylamino)pyrimidin-4-yl]-3,8-diazabicyclo[3.2.1]oct-8-yl}methanone] | 49 nM | 614 nM | > 10000 nM | 85 nM | 77 nM |  |
| CNC(=O)c1ncc(Nc2nccc(N3C[C@H]4CC[C@@H](C3)N4Cc3ccno3)n2)cc1C [Example 53, N,3-dimethyl-5-({4-[(1R,5S)-8-(1,2-oxazol-5-ylmethyl)-3,8-diazabicyclo[3.2.1]oct-3-yl]pyrimidin-2-yl}amino)pyridine-2-carboxamide] | 24 nM | 375 nM | > 10000 nM | 287 nM | 226 nM |  |
| Cn1cc(Nc2nccc(N3C[C@H]4CC[C@@H](C3)N4Cc3ccno3)n2)cn1 [Example 56, N-(1-methyl-1H-pyrazol-4-yl)-4-[(1R,5S)-8-(1,2-oxazol-5-ylmethyl)-3,8-diazabicyclo[3.2.1]oct-3-yl]pyrimidin-2-amine] | 41 nM | 394 nM | > 10000 nM | 78 nM | 110 nM |  |
| Cn1cc(Nc2nccc(N3C[C@H]4CC[C@@H](C3)N4Cc3nccs3)n2)cn1 [Example 57, N-(1-methyl-1H-pyrazol-4-yl)-4-[(1R,5S)-8-(1,3-thiazol-2-ylmethyl)-3,8-diazabicyclo[3.2.1]oct-3-yl]pyrimidin-2-amine] | 89 nM | 1070 nM | > 10000 nM | 338 nM | 294 nM |  |
| Cn1cc(Nc2nccc(N3C[C@H]4CC[C@@H](C3)N4C3CC(C#N)C3)n2)cn1 (stereo partly drawn) [Example 59, 3-[(1R,5S)-3-{2-[(1-methyl-1H-pyrazol-4-yl)amino]pyrimidin-4-yl}-3,8-diazabicyclo[3.2.1]oct-8-yl]cyclobutanecarbonitrile] | 62 nM | 236 nM | 8800 nM | 84 nM | 78 nM |  |
| Cn1cc(Nc2nccc(N3C[C@H]4CC[C@@H](C3)N4C3CN(S(C)(=O)=O)C3)n2)cn1 [Example 60, N-(1-methyl-1H-pyrazol-4-yl)-4-{(1R,5S)-8-[1-(methylsulfonyl)azetidin-3-yl]-3,8-diazabicyclo[3.2.1]oct-3-yl}pyrimidin-2-amine] | 70 nM | 159 nM | > 10000 nM | 103 nM | 36 nM |  |
| Cn1cc(Nc2nccc(N3C[C@H]4CC[C@@H](C3)N4C[C@@H]3CC3(F)F)n2)cn1 [Example 64, 4-[(1R,5S)-8-{[(1S)-2,2-difluorocyclopropyl]methyl}-3,8-diazabicyclo[3.2.1]oct-3-yl]-N-(1-methyl-1H-pyrazol-4-yl)pyrimidin-2-amine] | 41 nM | 320 nM | > 10000 nM | 71 nM | 95 nM |  |
| CCNC(=O)N1[C@@H]2CC[C@H]1CN(c1ccnc(Nc3cnsc3)n1)C2 [Example 74, (1R,5S)—N-ethyl-3-[2-(1,2-thiazol-4-ylamino)pyrimidin-4-yl]-3,8-diazabicyclo[3.2.1 l]octane-8-carboxamide] | 65 nM | 691 nM | > 10000 nM | 213 nM | 67 nM |  |
